Paper PMC7770045 (Biochemical pharmacology, 2020)

Target: serotonin transporter (SERT) (Rattus norvegicus, UniProt P31652)
Sequence (P31652 whole entry): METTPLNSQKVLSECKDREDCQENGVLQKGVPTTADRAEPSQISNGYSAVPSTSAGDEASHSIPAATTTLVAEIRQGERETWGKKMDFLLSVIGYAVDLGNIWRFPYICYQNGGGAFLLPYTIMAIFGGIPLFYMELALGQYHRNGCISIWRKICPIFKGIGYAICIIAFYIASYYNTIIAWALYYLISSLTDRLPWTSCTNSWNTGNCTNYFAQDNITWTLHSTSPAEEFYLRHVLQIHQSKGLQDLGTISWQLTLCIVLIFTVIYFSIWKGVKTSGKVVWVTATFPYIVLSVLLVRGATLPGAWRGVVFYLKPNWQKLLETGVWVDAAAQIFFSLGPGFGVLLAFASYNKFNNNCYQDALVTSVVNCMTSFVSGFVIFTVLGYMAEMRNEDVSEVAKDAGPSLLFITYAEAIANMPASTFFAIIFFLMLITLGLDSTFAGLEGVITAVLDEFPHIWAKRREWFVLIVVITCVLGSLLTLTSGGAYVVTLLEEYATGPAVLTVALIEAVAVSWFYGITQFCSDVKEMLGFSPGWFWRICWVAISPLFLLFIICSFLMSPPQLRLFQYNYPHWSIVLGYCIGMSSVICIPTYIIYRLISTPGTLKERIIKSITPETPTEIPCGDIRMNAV

NCCc1c[nH]c2ccc(O)cc12 [Serotonin]
Km: 2.21 µM
